This test relates to 422866-222-R5-J1-PDC spheroids with HUVEC/MSC, viability. In words: Anticancer human tumor 422866-222-R5-J1-PDC patient-derived pancreatic adenocarcinoma cell line growth inhibition [GQUAD]. The note with it: for viability, T/C: stronger effect = lower value. From the text: DNA G-quadruplex Stabilizer Agents in Combinations in Complex Spheroids
A high-throughput screen of multi-cell type tumor spheroids was designed to identify active combinations of DNA G-quadruplex stabilizer agents and targeted small molecules. Complex spheroids include a stromal component modeled by human endothelial cells (HUVEC) and fibroblasts modeled by human mesenchymal stem cells (MSCs). The concentration ranges selected for each drug and investigational agent were based upon clinically achievable concentrations if the clinical Cmax of the agent was known.
Compounds. The drugs and investigational agents: pidnarulex (CX-5461; NSC782164), APTO-253 (NSC789042), BRACO-19 (NSC847499), peposertib (NSC802822), ceralasertib (NSC780249), elimusertib (NSC800525), camonsertib (NSC841442), AZD-1390 (NSC803789), olaparib (NSC753686), talazoparib (NSC767125), ART-558 (NSC835418), sotorasib (NSC818433), MRTX-1133 (NSC836407), SN-38 (NSC673596), topotecan (NSC609699), etoposide (NSC141540), doxorubicin (NSC123127), gemcitabine (NSC613327), 5-fluorouracil (NSC19893), paclitaxel (NSC125973), vemurafenib (NSC761431), panobinostat (NSC761190), R-306465 (JNJ-16241199; NSC773264), adavosertib (NSC754352), TP-3654 (NSC805149), carboplatin (NSC241240), KSQ-4279 (NSC840948), and staurosporine (NSC755774) were obtained from the National Cancer Institute (NCI) Developmental Therapeutics Program Chemical Repository (34). The FDA-approved anticancer drug set is available from the NCI Developmental Therapeutics Program. […] The stock solutions were prepared in dimethyl sulfoxide (DMSO, Sigma-Aldrich, St. Louis, MO, cat. D2650) at 800-fold the tested concentration and stored at -70 degrees C prior to their use. All drugs and investigational agents were tested over a range starting from a high concentration at or near the clinical Cmax and decreasing in half-log increments. If the clinical Cmax for an agent had not been determined, the highest concentration tested was 10 microM.
2.3 Cell Culture. All cells were maintained in an incubator at 37 degrees C and 5% CO2 with 95% humidity. The PDC lines were cultured according to standard operating procedures established by the NCI PDMR. All PDCs were thawed and cultured in Matrigel-coated flasks prepared with a working solution of 1X Ham's F-12 nutrient mix, without supplementation (Invitrogen, cat. 11765054), 100 U/mL penicillin-streptomycin (Invitrogen, cat. 15140122), and 2.5% Matrigel (Corning Inc., cat. 354248) for the first three passages. The 857933-349-R-J2-PDC line was cultured in 6C/Colon 1B media, which includes advanced DMEM/F-12 (Thermo Fisher Scientific, cat. 12634028), 10 mM HEPES (Thermo Fisher Scientific, cat. 15630080), 1X GlutaMAX supplement (Thermo Fisher Scientific, cat. 35050061), 0.1 mg/mL primocin (InvivoGen, cat. ant-pm-2), 10% defined fetal bovine serum, heat inactivated (HyClone Laboratories Inc., cat. SH30070.03HI), 50% L-WRN conditioned media (ATCC, cat. CRL-3276), 1.25 mM N-Acetyl-L-cysteine (Sigma-Aldrich, cat. A9165), 10 mM nicotinamide (Sigma-Aldrich, cat. N0636), 1X B-27 supplement (Thermo Fisher Scientific, cat. 17504044), 1X N-2 supplement (Thermo Fisher Scientific, cat. 17502048), 10 microM Y-27632 dihydrochloride (Tocris Bioscience, cat. 1254), and 50 ng/mL human EGF recombinant protein (Thermo Fisher Scientific, cat. PHG0311). The 485176-168-R4-J1-PDC line was cultured in Panc media, which includes all 6C/Colon 1B media components plus 100 ng/mL human FGF-10 (Thermo Fisher Scientific, cat. 100-26), 500 nM SB-431542 (Selleckchem, cat. S1067), and gastrin (Tocris, cat. 3006).
[…]

“And” between values parts separate entries of the source, which are not always exact repeats. Equal entries are not always repeated.
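Note: spheroids exposed to compounds for seven days before reading.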
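Throughout, for viability, T/C: percent viability relative to DMSO vehicle control taken as 100%.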

In the case of `CN(C)c1ccc(Nc2c3ccc(NC(=O)CCN4CCCC4)cc3nc3cc(NC(=O)CCN4CCCC4)ccc23)cc1`, the viability, T/C (in general, the result in the treated group divided by that in the control group, in per cent) reads like this: (compound 0.0316 µM) 96.4% [middle of 12 runs]; (compound 0.1 µM) 96.8% [middle of 12 runs]; (compound 1 µM) 90.4% [middle of 12 runs]; (compound 3.16 µM) 96% [middle of 12 runs]. For the same compound, the 50% inhibitory concentration (IC50) (as a rule, the point on the concentration scale where inhibition reaches its midpoint) (compound alone, run of 04/22/2024) is more than 10 µM.
With `COc1cc(C2c3cc4c(cc3C(OC3OC5COC(C)OC5C(O)C3O)C3COC(=O)C23)OCO4)cc(OC)c1O` (centres undefined), the viability, T/C was 102% and 106% and 103% (compound 0.0316 µM); 84% and 84.1% and 90.4% (compound 0.1 µM); 72.1% and 81.7% and 80.7% (compound 0.316 µM); 62.7% and 51.7% and 55.9% (compound 1 µM); 40.4% and 40.3% and 45% (compound 3.16 µM); 38% and 35.9% and 40.2% (compound 10 µM). Moreover, where the note is “curve of compound”, the IC50 is 2.16 µM and 1.55 µM and 2 µM.
With `COc1ccc([C@@H](O)c2cc(-c3ncnc4cc(N5CCOCC5)ccc34)c(F)cc2Cl)nn1`, the viability, T/C is 82.4% and 103% and 110% (compound 0.0316 µM); 76.2% and 78.4% and 99% (compound 0.1 µM); 81.6% and 86% and 90.4% (compound 0.316 µM); 63.3% and 76.9% and 70.8% (compound 1 µM); 51.5% and 44.1% and 60.7% (compound 3.16 µM); 36.9% and 35.1% and 47.2% (compound 10 µM). Further, the IC50 (curve of compound) is 3.15 µM and 2.62 µM and 7.88 µM.
Take `COc1cccc2c1C(=O)c1c(O)c3c(c(O)c1C2=O)CC(O)(C(=O)CO)CC3OC1CC(N)C(O)C(C)O1` (centres undefined): the viability, T/C is, setting by setting: (compound 0.0316 µM) 94.3% and 90.9% and 92.6%; (compound 0.1 µM) 58.5% and 62.5% and 78.8%; (compound 0.316 µM) 61.9% and 57.1% and 68.5%; (compound 1 µM) 41.8% and 51.2% and 47.5%; (compound 3.16 µM) 35.5% and 35.9% and 29.4%; (compound 10 µM) 32% and 40.5% and 31.3%. The IC50 (curve of compound) is 0.421 µM and 0.585 µM and 0.812 µM.
Take `Cc1[nH]c2ccccc2c1CCNCc1ccc(/C=C/C(=O)NO)cc1`: the viability, T/C by setting is: (compound 0.000999 µM) 94.9% and 82.3% and 89.6%; (compound 0.00316 µM) 90.6% and 106% and 89.9%; (compound 0.00999 µM) 110% and 121% and 100%; (compound 0.0316 µM) 95.7% and 94.4% and 76.5%; (compound 0.0999 µM) 88.5% and 62.9% and 66.2%; (compound 0.316 µM) 86.2% and 55.7% and 46.1%. In addition, the concentration for half-maximal inhibition (IC50) (curve of compound) was > 0.316 µM and 0.254 µM.
Consider `Cc1cccc(N(C)C(=O)C2C(O)CCN2c2nc(C)cc(C(F)(F)F)c2C#N)c1` (centres undefined), for which the viability, T/C by setting is: (compound 0.0316 µM) 96.3% and 97.3% and 82.4%; (compound 0.1 µM) 103% and 95.9% and 89.9%; (compound 0.316 µM) 103% and 102% and 96.2%; (compound 1 µM) 101% and 96.9% and 109%; (compound 3.16 µM) 99.9% and 77.2% and 105%; (compound 10 µM) 108% and 97.5% and 98%. Moreover, the IC50 (curve of compound) was more than 10 µM.
In the case of `Cn1ncnc1[C@H]1c2n[nH]c(=O)c3cc(F)cc(c23)N[C@@H]1c1ccc(F)cc1`, the viability, T/C is 91.3% and 88.8% and 87.1% (compound 0.000999 µM); 107% and 96.2% and 77.8% (compound 0.00316 µM); 96.3% and 99.6% and 107% (compound 0.00999 µM); 91.8% and 90.4% and 88.1% (compound 0.0316 µM); 80.6% and 91.5% and 75.3% (compound 0.0999 µM); 78.1% and 72.3% and 73.5% (compound 0.316 µM). Also, the IC50 (curve of compound) was more than 0.316 µM.
Turning to `Nc1ccn(C2OC(CO)C(O)C2(F)F)c(=O)n1` (centres undefined), the viability, T/C was 87.9% and 88.9% and 93.4% (compound 0.0316 µM); 66% and 76.8% and 74.1% (compound 0.1 µM); 61.7% and 70.3% and 61.1% (compound 0.316 µM); 51.8% and 55.9% and 40% (compound 1 µM); 41.4% and 48.6% and 40% (compound 3.16 µM); 40.8% and 39.7% and 38% (compound 10 µM). Moreover, the concentration for half-maximal inhibition (IC50) (curve of compound) is 0.993 µM and 2.48 µM and 0.598 µM.
For `O=C(NO)c1cnc(N2CCN(S(=O)(=O)c3ccc4ccccc4c3)CC2)nc1`, the viability, T/C was 69.6% and 96.6% and 94.7% (compound 0.0316 µM); 70.9% and 105% and 90% (compound 0.1 µM); 69.7% and 92.5% and 88.2% (compound 0.316 µM); 67% and 52.3% and 58.2% (compound 1 µM); 74.3% and 29.5% and 37.5% (compound 3.16 µM). Moreover, the IC50 (curve of compound) is > 10 µM and 1.34 µM and 1.73 µM.
For `O=C(c1cc(Cc2n[nH]c(=O)c3ccccc23)ccc1F)N1CCN(C(=O)C2CC2)CC1`, the viability, T/C reads like this: (compound 0.0316 µM) 95.7% and 90.6% and 98.8%; (compound 0.1 µM) 89.7% and 88.2% and 93.5%; (compound 0.316 µM) 95.3% and 90.9% and 94%; (compound 1 µM) 81.4% and 92.8% and 99.6%; (compound 3.16 µM) 74% and 86.8% and 84%; (compound 10 µM) 79.3% and 66.8% and 59%. Further, where the note is “curve of compound”, the IC50 was more than 10 µM.
Turning to `O=c1[nH]cc(F)c(=O)[nH]1`, the viability, T/C by setting is: (compound 0.0316 µM) 103% and 89.7% and 95.6%; (compound 0.1 µM) 93.4% and 92.9% and 86.8%; (compound 0.316 µM) 91% and 104% and 109%; (compound 1 µM) 88% and 89.2% and 87.2%; (compound 3.16 µM) 78.2% and 73.6% and 76.3%; (compound 10 µM) 71.8% and 68.2% and 62.4%. Further, the IC50 (curve of compound) was more than 10 µM.

These data come from PubChem BioAssay AID2060511 (Molecular Pharmacology Branch, DTP, NCI, 2025).
